From ChEMBL document CHEMBL4622887, “Antibacterial Pentacyclic Polyketides from a Soil-Derived Streptomyces” (2020)
Converted amounts (≈) assume the structure as drawn.

Tests used:
Format in all cases: functional
[1] = test system: Staphylococcus aureus; experiment: Antibacterial activity against methicillin-resistant Staphylococcus aureus shhs-A1 incubated for 16 hrs by broth microdilution method; conditions: shhs-A1, 16 h
[2] = test system: Staphylococcus aureus; experiment: Antibacterial activity against Staphylococcus aureus ATCC 6538 incubated for 16 hrs by broth microdilution method; conditions: ATCC 6538, 16 h
[3] = test system: Bacillus spizizenii; experiment: Antibacterial activity against Bacillus subtilis ATCC 6633 incubated for 16 hrs by broth microdilution method; conditions: ATCC 6633, 16 h
[4] = test system: Escherichia coli; experiment: Antibacterial activity against Escherichia coli ATCC 8099 incubated for 16 hrs by broth microdilution method; conditions: ATCC 8099, 16 h

| SMILES | MIC [1] [µg/mL] | MIC [2] [µg/mL] | MIC [3] [µg/mL] | MIC [4] [µg/mL] |
| --- | --- | --- | --- | --- |
| COc1cc(C)c(-c2cc(OC)c(Cl)c3c2C(=O)[C@@]2(O)C(=O)c4c(O)c(Cl)c(O)c(Cl)c4C(C)(C)[C@H]2C3)c(OC)c1 | 0.2 (≈ 0.322 µM) | 0.39 (≈ 0.627 µM) | 0.39 (≈ 0.627 µM) | 0.78 (≈ 1.25 µM) |
| COc1cc(OC)c(-c2cc(OC)c(Cl)c3c2C(=O)[C@@]2(O)C(=O)c4c(O)cc(O)cc4C(C)(C)[C@H]2C3)c(C)c1Cl | 25 (≈ 42.6 µM) | 6.25 (≈ 10.6 µM) | 25 (≈ 42.6 µM) | 25 (≈ 42.6 µM) |
| COc1cc(O)c(-c2cc(O)cc3cc4c(c(O)c23)C(=O)c2c(O)cc(O)cc2C4(C)C)c(C)c1Cl | 1.56 (≈ 3.08 µM) | 3.13 (≈ 6.17 µM) | 3.13 (≈ 6.17 µM) | 3.13 (≈ 6.17 µM) |
| COc1cc(-c2c(O)cc(OC)c(Cl)c2C)c2c(O)c3c(cc2c1)C(C)(C)c1cc(O)cc(O)c1C3=O | 3.13 (≈ 6.01 µM) | 6.25 (≈ 12 µM) | 6.25 (≈ 12 µM) | 3.13 (≈ 6.01 µM) |
| NC[C@H]1O[C@H](O[C@H]2[C@H](O)[C@@H](O[C@H]3O[C@H](CO)[C@@H](O)[C@H](N)[C@H]3O)[C@H](N)C[C@@H]2N)[C@H](O)[C@@H](O)[C@@H]1O [KANAMYCIN] |  | 1.56 (≈ 3.22 µM) | 0.78 (≈ 1.61 µM) | 50 (≈ 103 µM) |
| COc1cc(C)c(-c2cc(OC)c(Cl)c3c2C(=O)[C@@]2(O)C(=O)c4c(O)cc(O)cc4C(C)(C)[C@H]2C3)c(OC)c1 | 1.56 (≈ 2.82 µM) | 3.13 (≈ 5.66 µM) | 3.13 (≈ 5.66 µM) | 3.13 (≈ 5.66 µM) |
| COc1cc(O)cc(C)c1-c1cc(O)c(Cl)c2cc3c(c(O)c12)C(=O)c1c(O)cc(O)cc1C3(C)C | 3.13 (≈ 6.17 µM) | 1.56 (≈ 3.08 µM) | 6.25 (≈ 12.3 µM) | 6.25 (≈ 12.3 µM) |
| CN[C@H](CC(C)C)C(=O)N[C@H]1C(=O)N[C@@H](CC(N)=O)C(=O)N[C@H]2C(=O)N[C@H]3C(=O)N[C@H](C(=O)N[C@H](C(=O)O)c4cc(O)cc(O)c4-c4cc3ccc4O)[C@H](O)c3ccc(c(Cl)c3)Oc3cc2cc(c3O[C@@H]2O[C@H](CO)[C@@H](O)[C@H](O)[C@H]2O[C@H]2C[C@](C)(N)[C@H](O)[C@H](C)O2)Oc2ccc(cc2Cl)[C@H]1O [VANCOMYCIN] | 1.56 (≈ 1.08 µM) |  |  |  |
| COc1cc(C)c(-c2cc(OC)cc3cc4c(c(O)c23)C(=O)c2c(O)cc(O)cc2C4(C)C)c(O)c1 | 3.13 (≈ 6.43 µM) | 3.13 (≈ 6.43 µM) | 6.25 (≈ 12.8 µM) | 3.13 (≈ 6.43 µM) |
| COc1cc(O)c(-c2cc(OC)c(Cl)c3c2C(=O)[C@@]2(O)C(=O)c4c(O)cc(O)cc4C(C)(C)[C@H]2C3)c(C)c1Cl | 1.56 (≈ 2.72 µM) | 0.39 (≈ 0.68 µM) | 1.56 (≈ 2.72 µM) | 1.56 (≈ 2.72 µM) |
| COc1cc(OC)c(-c2cc(OC)c(Cl)c3c2C(=O)[C@@]2(O)C(=O)c4c(cc(O)c(Cl)c4O)C(C)(C)[C@H]2C3)c(C)c1Cl | 3.13 (≈ 5.03 µM) | 6.25 (≈ 10 µM) | 3.13 (≈ 5.03 µM) | 12.5 (≈ 20.1 µM) |
| COc1cc(C)c(-c2cc(OC)c(Cl)c3c2C(=O)[C@@]2(O)C(=O)c4c(O)cc(O)c(Cl)c4C(C)(C)[C@H]2C3)c(OC)c1 | 1.56 (≈ 2.66 µM) | 0.78 (≈ 1.33 µM) | 3.13 (≈ 5.33 µM) | 1.56 (≈ 2.66 µM) |
| COc1cc(C)c(-c2cc(O)c(Cl)c3c2C(=O)[C@@]2(O)C(=O)c4c(O)cc(O)cc4C(C)(C)[C@H]2C3)c(O)c1 |  | 12.5 (≈ 23.8 µM) | 50 (≈ 95.2 µM) | 25 (≈ 47.6 µM) |
| COc1cc(C)c(-c2cc(O)c(Cl)c3cc4c(c(O)c23)C(=O)c2c(O)cc(OC)cc2C4(C)C)c(OC)c1 | 6.25 (≈ 11.7 µM) | 6.25 (≈ 11.7 µM) | 6.25 (≈ 11.7 µM) | 6.25 (≈ 11.7 µM) |
| COc1cc(C)c(-c2cc(OC)c(Cl)c3c2C(=O)[C@@]2(O)C(=O)c4c(O)cc(O)cc4C(C)(C)[C@H]2C3)c(O)c1 | 6.25 (≈ 11.6 µM) | 6.25 (≈ 11.6 µM) | 6.25 (≈ 11.6 µM) | 3.13 (≈ 5.81 µM) |
| COc1cc(C)c(-c2cc(OC)c(Cl)c3cc4c(c(O)c23)C(=O)c2c(O)cc(O)cc2C4(C)C)c(OC)c1 | 3.13 (≈ 5.85 µM) | 3.13 (≈ 5.85 µM) | 12.5 (≈ 23.4 µM) | 3.13 (≈ 5.85 µM) |
| COc1cc(C)c(-c2cc(OC)cc3cc4c(c(O)c23)C(=O)c2c(O)cc(O)cc2C4(C)C)c(OC)c1 | 1.56 (≈ 3.12 µM) | 3.13 (≈ 6.25 µM) | 3.13 (≈ 6.25 µM) | 1.56 (≈ 3.12 µM) |
| COc1cc2c(c(-c3c(O)cc(OC)c(Cl)c3C)c1)C(=O)[C@@]1(O)C(=O)c3c(O)cc(O)cc3C(C)(C)[C@H]1C2 | 3.13 (≈ 5.81 µM) | 3.13 (≈ 5.81 µM) | 6.25 (≈ 11.6 µM) | 3.13 (≈ 5.81 µM) |
| COc1cc(OC)c(-c2cc(OC)c(Cl)c3c2C(=O)[C@@]2(O)C(=O)c4c(O)cc(O)c(Cl)c4C(C)(C)[C@H]2C3)c(C)c1Cl | 3.13 (≈ 5.03 µM) | 3.13 (≈ 5.03 µM) | 1.56 (≈ 2.51 µM) | 1.56 (≈ 2.51 µM) |
